# Patent EP4755888A1 (ILAb Co., Ltd., priority 2023, dated 2025)
# Columns and labels:
# [1] = target: T1, PD-L1 expressed on the cell surface (MC38 hPD-L1) (Homo sapiens, UniProt Q9NZQ7); experiment: Internalization of cell surface PD-L1, flow cytometry with fluorescent staining; format: cell-based; details: MC38 hPD-L1 cells, 1 µM, 4 hours; untreated 90% to 99%
# T1 construct: expressed in transfected cells; host or cells: MC38 mouse colon cancer cell line expressing human PD-L1
# Procedure: In order to evaluate the internalization of cell surface PD-L1 induced by the compounds of the present invention synthesized according to the above Preparation Examples, a flow cytometry experiment using fluorescent staining was conducted as described below.
# Specifically, a mouse colon cancer cell line expressing human PD-L1 (MC38 hPD-L1) was seeded into a 24-well plate at a density of 5 x 10^5 cells per well, followed by treatment with Compounds 206 to 227 at a concentration of 1 µM and incubation for 4 hours. After 4 hours, the compound-treated MC38 hPD-L1 cells were collected and stained with PE anti-hPD-L1 fluorecence at room temperature for 30 minutes. The rate of PD-L1 expression on the cell surface was then quantified using flow cytometry.
# PD-1/PD-L1 = PD-1/PD-L1 (Homo sapiens, UniProt Q9NZQ7); experiment: TR-FRET PD-1/PD-L1 binding inhibition at the molecular level (free proteins); details: Tag1-PD-L1 and Tag2-PD-1 proteins, twelve concentrations from 200 nM, 2 hours at room temperature, read-out: FRET assay (IC50)
# Sequence of PD-1/PD-L1 (Q9NZQ7 19-238 limits assumed): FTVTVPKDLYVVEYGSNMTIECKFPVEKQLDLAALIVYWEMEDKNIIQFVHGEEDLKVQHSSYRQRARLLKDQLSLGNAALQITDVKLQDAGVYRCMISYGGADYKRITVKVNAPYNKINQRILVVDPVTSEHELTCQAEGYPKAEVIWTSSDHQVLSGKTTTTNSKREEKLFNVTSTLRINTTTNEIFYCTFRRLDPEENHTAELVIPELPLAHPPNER
# Outline: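 HTRF read-out at 665/620 nm after 2 h at room temperature. Detection used anti-Tag1 Eu cryptate plus anti-Tag2 XL665 antibodies. Tagged PD-L1 and PD-1 proteins were pre-mixed with compound across twelve […] 1:2 dilutions starting at 200 nM.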
# T1 sequence (Q9NZQ7 19-290): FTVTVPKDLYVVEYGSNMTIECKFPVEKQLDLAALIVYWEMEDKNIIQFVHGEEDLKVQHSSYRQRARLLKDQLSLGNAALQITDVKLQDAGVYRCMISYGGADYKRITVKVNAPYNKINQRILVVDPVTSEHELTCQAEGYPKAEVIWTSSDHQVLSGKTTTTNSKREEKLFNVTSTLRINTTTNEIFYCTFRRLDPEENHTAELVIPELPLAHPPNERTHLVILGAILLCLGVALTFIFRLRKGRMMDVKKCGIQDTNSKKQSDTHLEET
Structure (SMILES),Cell surface PD-L1 expression level (%) [1] [%],IC50 (PD-1/PD-L1) [nM]
"O=C(Nc1cccc(-c2cccc(NC(=O)c3cc4n(n3)CCC[C@H]4N3CC[C@@H](C(=O)O)C3)c2Cl)c1Cl)c1ccc(CNCCO)cn1 [Compound 209, (R)-1-((R)-2-((2,2'-dichloro-3'-(5-(((2-hydroxyethyl)amino)methyl)picolinamido)-[1,1'-biphenyl]-3-yl)carbamoyl)-4,5,6,7-tetrahydropyrazolo[1,5-a]pyridin-4-yl)pyrrolidine-3-carboxylic acid]",71.0,< 10
"Cc1c(NC(=O)c2cc3n(n2)CCC[C@H]3N2CC[C@@H](C(=O)O)C2)cccc1-c1cccc(Nc2nc(C(F)F)nc3cc(CN4CC[C@@H](O)C4)cnc23)c1C [Compound 211, (R)-1-((R)-2-((3'-((2-(difluoromethyl)-7-(((R)-3-hydroxypyrrolidin-1-yl)methyl)pyrido[3,2-d]pyrimidin-4-yl)amino)-2,2'-dimethyl-[1,1'-biphenyl]-3-yl)carbamoyl)-4,5,6,7-tetrahydropyrazolo[1,5-a]pyridin-4-yl)pyrrolidine-3-carboxylic acid]",75.3,< 10
"Cc1c(NC(=O)c2cc3n(n2)CCC[C@H]3NCC(=O)O)cccc1-c1cccc(Nc2nc(C(F)F)nc3cc(CN4CC[C@@H](O)C4)cnc23)c1C [Compound 213, 2-(((R)-2-((3'-((2-(difluoromethyl)-7-(((R)-3-hydroxypyrrolidin-1-yl)methyl)pyrido[3,2-d]pyrimidin-4-yl)amino)-2,2'-dimethyl-[1,1'-biphenyl]-3-yl)carbamoyl)-4,5,6,7-tetrahydropyrazolo[1,5-a]pyridin-4-yl)amino)acetic acid]",73.9,< 10
"Cc1c(NC(=O)c2ccc(CN3CC[C@@H](O)C3)cn2)cccc1-c1cccc(NC(=O)c2cc3n(n2)CCC[C@H]3NCCO)c1C [Compound 215, (R)-4-((2-hydroxyethyl)amino)-N-(3'-(5-(((R)-3-hydroxypyrrolidin-1-yl)methyl)picolinamido)-2,2'-dimethyl-[1,1'-biphenyl]-3-yl)-4,5,6,7-tetrahydropyrazolo[1,5-a]pyridine-2-carboxamide]",88.7,< 10
"O=C(O)CN[C@@H]1CCCn2nc(C(=O)Nc3cccc(-c4cccc(Nc5nccc6cc(CN7CC[C@@H](O)C7)cnc56)c4Cl)c3Cl)cc21 [Compound 219, 2-(((R)-2-((2,2'-dichloro-3'-((3-(((R)-3-hydroxypyrrolidin-1-yl)methyl)-1,7-naphthyridin-8-yl)amino)-[1,1'-biphenyl]-3-yl)carbamoyl)-4,5,6,7-tetrahydropyrazolo[1,5-a]pyridin-4-yl)amino)acetic acid]",36.5,< 10
"O=C(O)CN[C@@H]1CCCn2nc(C(=O)Nc3cccc(-c4cccc(NC(=O)c5ccc(CNCCO)cn5)c4Cl)c3Cl)cc21 [Compound 221, (R)-2-((2-((2,2'-dichloro-3'-(5-(((2-hydroxyethyl)amino)methyl)picolinamido)-[1,1'-biphenyl]-3-yl)carbamoyl)-4,5,6,7-tetrahydropyrazolo[1,5-a]pyridin-4-yl)amino)acetic acid]",41.3,< 10
"O=C(O)CN[C@@H]1CCCn2nc(C(=O)Nc3cccc(-c4cccc(NC(=O)c5ccc(CN6CC[C@@H](O)C6)cn5)c4Cl)c3Cl)cc21 [Compound 223, 2-(((R)-2-((2,2'-dichloro-3'-(5-(((R)-3-hydroxypyrrolidin-1-yl)methyl)picolinamido)-[1,1'-biphenyl]-3-yl)carbamoyl)-4,5,6,7-tetrahydropyrazolo[1,5-a]pyridin-4-yl)amino)acetic acid]",66.4,10 to 100
"O=C1CC[C@@H](CN[C@H]2CCCn3nc(C(=O)Nc4cccc(-c5cccc(NC(=O)c6ccc(CNCCO)cn6)c5Cl)c4Cl)cc32)N1 [Compound 224, (S)-N-(2,2'-dichloro-3'-(5-(((2-hydroxyethyl)amino)methyl)picolinamido)-[1,1'-biphenyl]-3-yl)-4-((((S)-5-oxopyrrolidin-2-yl)methyl)amino)-4,5,6,7-tetrahydropyrazolo[1,5-a]pyridine-2-carboxamide]",70.8,< 10
"O=C1CC[C@@H](CN[C@@H]2CCCn3nc(C(=O)Nc4cccc(-c5cccc(NC(=O)c6ccc(CNCCO)cn6)c5Cl)c4Cl)cc32)N1 [Compound 225, (R)-N-(2,2'-dichloro-3'-(5-(((2-hydroxyethyl)amino)methyl)picolinamido)-[1,1'-biphenyl]-3-yl)-4-((((S)-5-oxopyrrolidin-2-yl)methyl)amino)-4,5,6,7-tetrahydropyrazolo[1,5-a]pyridine-2-carboxamide]",1.6,10 to 100
"O=C(Nc1cccc(-c2cccc(Nc3nccc4cc(CN5CC[C@H](O)C5)cnc34)c2Cl)c1Cl)c1cc2n(n1)CCC[C@@H]2N1CCC(C(=O)O)CC1 [Compound 226, 1-((S)-2-((2,2'-dichloro-3'-((3-(((S)-3-hydroxypyrrolidin-1-yl)methyl)-1,7-naphthyridin-8-yl)amino)-[1,1'-biphenyl]-3-yl)carbamoyl)-4,5,6,7-tetrahydropyrazolo[1,5-a]pyridin-4-yl)piperidine-4-carboxylic acid]",80.8,10 to 100
"CN[C@H]1CCCn2nc(C(=O)Nc3cccc(-c4cccc(Nc5nc(C(F)(F)F)nc6cccnc56)c4Cl)c3Cl)cc21 [Compound 356, (S)-N-(2,2'-dichloro-3'-((2-(trifluoromethyl)pyrido[3,2-d]pyrimidin-4-yl)amino)-[1,1'-biphenyl]-3-yl)-4-(methylamino)-4,5,6,7-tetrahydropyrazolo[1,5-a]pyridine-2-carboxamide]",,10 to 100
"CN[C@@H]1CCCn2nc(C(=O)Nc3cccc(-c4cccc(Nc5nc(C(F)(F)F)nc6cccnc56)c4Cl)c3Cl)cc21 [Compound 357, (R)-N-(2,2'-dichloro-3'-((2-(trifluoromethyl)pyrido[3,2-d]pyrimidin-4-yl)amino)-[1,1'-biphenyl]-3-yl)-4-(methylamino)-4,5,6,7-tetrahydropyrazolo[1,5-a]pyridine-2-carboxamide]",,10 to 100
